In ChEMBL document CHEMBL4007424, “Design and Synthesis of Enantiomerically Pure Decahydroquinoxalines as Potent and Selective κ-Opioid Receptor Agonists with Anti-Inflammatory Activity in Vivo” (J Med Chem, 2017):

Legend:
[1] = Plasma concentration in Wistar Han rat at 5 mg/kg, iv measured 0.25 hrs post compound administration; format: ADME, organism-based
[2] = Plasma concentration in Wistar Han rat at 5 mg/kg, iv measured 1 hr post compound administration; format: ADME, organism-based
[3] = Drug level in Wistar Han rat brain at 5 mg/kg, iv measured 1 hr post compound administration; format: ADME, organism-based; details: read-out: Drug uptake
[4] = Ratio of drug level in brain to plasma in Wistar Han rat at 5 mg/kg, iv after 1 hr; format: ADME, organism-based; details: read-out: BPR
[5] = system: Rattus norvegicus; test: Toxicity in Wistar Han rat assessed as assessed as clinical signs changes at 5 mg/kg, iv after 1 hr; format: organism-based; details: in vivo
[6] = molecular target: Sigma non-opioid intracellular receptor 1 (Cavia porcellus) (UniProt Q60492); test: Displacement of [3H]-(+)-pentazocine from sigma1-type […] receptor in guinea pig cortex membranes at 1 uM after 120 mins by solid scintillation counting; format: cell membranes
[7] = species on record: Rattus norvegicus; test: Displacement of [3H]-DTG from sigma 2 receptor in rat liver membranes at 1 uM after 120 mins by scintillation counting; format: cell membranes; details: Membrane
[8] = species on record: Sus scrofa; test: Displacement of [3H]-(+)-MK 801 from PCP binding site of NMDA receptor in pig brain cortex membranes at 10 uM after 120 mins by solid scintillation counting; format: cell membranes
[9] = molecular target: T1, Kappa-type opioid receptor (Homo sapiens, UniProt P41145); test: Agonist activity at recombinant human kappa-type opioid receptor expressed in HEK293 cells at 1 uM after 30 mins by [35S]GTPgammaS binding assay; format: functional, cell-based
[10] = molecular target: Kappa-type opioid receptor (Cavia porcellus, UniProt P41144); test: Displacement of [3H]U-69,593 from kappa-type opioid receptor in guinea pig brain membranes after 120 mins by solid scintillation counting; format: cell membranes, Membrane
[11] = molecular target: Mu-type opioid receptor (Cavia porcellus, UniProt P97266); test: Displacement of [3H]DAMGO from mu-type opioid receptor in guinea pig brain membranes after 120 mins by solid scintillation counting; format: cell membranes, Membrane
[12] = Displacement of [3H]DPDPE from delta-type opioid receptor in guinea pig brain membranes after 120 mins by solid scintillation counting; format: cell membranes, Cavia porcellus, Membrane
[13] = molecular target: T1, Kappa-type opioid receptor; test: Agonist activity at recombinant human kappa-type opioid receptor expressed in HEK293 cells after 30 mins by [35S]GTPgammaS binding assay; format: functional, cell-based
[14] = system: Mus musculus; test: Antiinflammatory activity in arachidonic acid-induced ear dermatitis ICR mouse model assessed as reduction in ear swelling at 0.1 mg administered twice tropically 30 mins prior and 15 mins after arachidonic acid addition measured 60 mins post arachidonic acid challenge relative to control; format: functional
[15] = system: Mus musculus; test: Antiinflammatory activity in arachidonic acid-induced ear dermatitis ICR mouse model assessed as reduction in ear swelling at 0.3 mg administered twice tropically 30 mins prior and 15 mins after arachidonic acid addition measured 60 mins post arachidonic acid challenge relative to control; format: functional
[16] = system: Mus musculus; test: Antiinflammatory activity in arachidonic acid-induced ear dermatitis ICR mouse model assessed as reduction in ear swelling at 1 mg administered twice tropically 30 mins prior and 15 mins after arachidonic acid addition measured 60 mins post arachidonic acid challenge relative to control; format: functional
[17] = system: Mus musculus; test: Antiinflammatory activity in arachidonic acid-induced ear dermatitis ICR mouse model assessed as reduction in ear swelling at 3 mg administered twice tropically 30 mins prior and 15 mins after arachidonic acid addition measured 60 mins post arachidonic acid challenge relative to control; format: functional
[18] = molecular target: Mu-type opioid receptor (Cavia porcellus) (UniProt P97266); test: Displacement of [3H]DAMGO from mu-type opioid receptor in guinea pig brain membranes at 1 uM after 120 mins by solid scintillation counting; format: cell membranes; details: Membrane
Chain of Mu-type opioid receptor (Cavia porcellus) (P97266 whole entry): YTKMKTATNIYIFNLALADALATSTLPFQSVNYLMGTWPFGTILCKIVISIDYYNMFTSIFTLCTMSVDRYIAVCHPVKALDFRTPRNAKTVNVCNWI

Chain of Sigma non-opioid intracellular receptor 1 (Cavia porcellus) (Q60492 whole entry): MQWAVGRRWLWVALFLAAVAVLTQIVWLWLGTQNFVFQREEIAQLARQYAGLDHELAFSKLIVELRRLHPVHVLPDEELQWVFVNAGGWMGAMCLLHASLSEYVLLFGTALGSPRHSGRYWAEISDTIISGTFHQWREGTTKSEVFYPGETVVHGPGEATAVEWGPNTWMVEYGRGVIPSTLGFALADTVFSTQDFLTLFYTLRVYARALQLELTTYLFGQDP
Chain of Kappa-type opioid receptor (Cavia porcellus, UniProt P41144) (P41144 whole entry): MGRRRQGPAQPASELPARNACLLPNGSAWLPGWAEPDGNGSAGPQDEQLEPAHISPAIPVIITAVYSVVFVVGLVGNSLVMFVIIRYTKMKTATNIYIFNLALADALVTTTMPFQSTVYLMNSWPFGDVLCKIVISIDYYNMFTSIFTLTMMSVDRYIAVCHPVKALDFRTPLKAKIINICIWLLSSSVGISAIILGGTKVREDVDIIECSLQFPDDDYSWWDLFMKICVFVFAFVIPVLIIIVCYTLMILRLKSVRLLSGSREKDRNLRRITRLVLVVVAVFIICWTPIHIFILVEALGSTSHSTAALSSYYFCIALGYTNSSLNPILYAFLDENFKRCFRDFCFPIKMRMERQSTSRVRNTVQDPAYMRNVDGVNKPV
T1 sequence (P41145 whole entry): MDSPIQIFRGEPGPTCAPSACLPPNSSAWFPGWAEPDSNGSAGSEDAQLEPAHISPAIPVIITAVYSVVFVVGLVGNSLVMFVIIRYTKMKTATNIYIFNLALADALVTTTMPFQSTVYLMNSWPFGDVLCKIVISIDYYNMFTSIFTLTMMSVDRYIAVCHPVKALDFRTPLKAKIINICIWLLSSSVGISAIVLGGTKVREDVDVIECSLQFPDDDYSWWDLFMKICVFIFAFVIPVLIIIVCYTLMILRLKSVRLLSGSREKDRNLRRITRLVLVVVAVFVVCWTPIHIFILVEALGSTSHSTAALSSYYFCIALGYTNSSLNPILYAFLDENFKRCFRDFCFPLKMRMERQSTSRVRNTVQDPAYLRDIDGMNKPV
Chain of Mu-type opioid receptor (P97266 whole entry): as the sequence (P97266 whole entry) above

SMILES | concentration at 0.25 h [1] [ng/mL] | concentration at 1 h [2] [ng/mL] | concentration at 1 h [3] [ng/g] | Kp at 1 h [4] | Activity [5] | inhibition [6] [%] | inhibition [7] [%] | inhibition [8] [%] | Activity [9] [%] | also measured
COC(=O)N1CCN(C(=O)Cc2cccc(Cl)c2)[C@@H]2[C@@H](N3CC[C@H](O)C3)CCC[C@@H]21.Cl | 1500 | 414 | 41.2 | 0.1 | Non-Toxic |  |  |  |  | 
COC(=O)N1CCN(C(=O)Cc2ccc(C(F)(F)F)c(Cl)c2)[C@@H]2[C@@H](N3CC[C@H](O)C3)CCC[C@@H]21 |  |  |  |  |  | 30 | 5 | 0 | 100 | 
CS(=O)(=O)N1CCN(C(=O)Cc2ccc(Cl)c(Cl)c2)[C@@H]2[C@@H](N3CC[C@H](O)C3)CCC[C@@H]21.Cl | 4650 | 2170 | 52.3 | 0.02 | Non-Toxic |  |  |  |  | 
CN(C)S(=O)(=O)N1CCN(C(=O)Cc2ccc(Cl)c(Cl)c2)[C@@H]2[C@@H](N3CCCC3)CCC[C@@H]21 |  |  |  |  |  | 0 | 0 |  | 105 | 
O=C(Cc1ccc(Cl)c(Cl)c1)N1CCN[C@H]2CCC[C@H](N3CCCC3)[C@H]21 |  |  |  |  |  |  | 0 | 0 |  | 
COC(=O)N1CCN(C(=O)Cc2ccc(Cl)c(Cl)c2)[C@@H]2[C@@H](N3CC[C@H](O)C3)CCC[C@@H]21 |  |  |  |  |  | 0 | 12 | 21 | 113 | 
COC(=O)N1CCN(C(=O)Cc2ccc(Cl)cc2)[C@@H]2[C@@H](N3CC[C@H](O)C3)CCC[C@@H]21 |  |  |  |  |  |  |  |  |  | Ki [10]: 0.65 nM; Ki [11]: 365 nM; Ki [12]: 451 nM; EC50 [13]: 14 nM; inhibition (INH) [14]: 24%; inhibition (INH) [15]: 27%; inhibition (INH) [16]: 27%; inhibition (INH) [17]: 62%
CS(=O)(=O)N1CCN(C(=O)Cc2ccc(Cl)c(F)c2)[C@@H]2[C@@H](N3CC[C@H](O)C3)CCC[C@@H]21.Cl | 938 | 437 | 37.5 | 0.09 | Non-Toxic |  |  |  |  | 
O=C(Cc1ccc(Cl)cc1)N1CCN(S(=O)(=O)Cc2ccon2)[C@H]2CCC[C@H](N3CC[C@H](O)C3)[C@H]21 |  |  |  |  |  | 24 | 0 | 0 | 103 | Ki [10]: 0.98 nM; inhibition [18]: 0%; Ki [12]: 880 nM; EC50 [13]: 6.9 nM
COC(=O)N1CCN(C(=O)Cc2ccc(F)c(Cl)c2)[C@@H]2[C@@H](N3CC[C@H](O)C3)CCC[C@@H]21 |  |  |  |  |  |  |  |  |  | Ki [10]: 0.82 nM; Ki [11]: 1300 nM; Ki [12]: 61 nM; EC50 [13]: 2.2 nM; inhibition (INH) [14]: -12%; inhibition (INH) [15]: -4%; inhibition (INH) [16]: 58%; inhibition (INH) [17]: 66%
COC(=O)N1CCN(C(=O)Cc2ccc(Cl)cc2)[C@@H]2[C@@H](N3CC[C@H](O)C3)CCC[C@@H]21.Cl | 1340 | 374 | 70.6 | 0.19 | Non-Toxic |  |  |  |  | 
COC(=O)CN1CCN(C(=O)Cc2ccc(Cl)c(Cl)c2)[C@@H]2[C@@H](N3CCCC3)CCC[C@@H]21 |  |  |  |  |  | 0 | 0 | 13 | 111 | 
COC(=O)N1CCN(C(=O)Cc2ccc(Cl)c(Cl)c2)[C@@H]2[C@@H](N3CC[C@@H](O)C3)CCC[C@@H]21 |  |  |  |  |  | 0 | 13 | 55 | 109 | inhibition [18]: 5%
COC(=O)N1CCN(C(=O)Cc2cccc(Cl)c2)[C@@H]2[C@@H](N3CC[C@H](O)C3)CCC[C@@H]21 |  |  |  |  |  |  |  |  |  | Ki [10]: 1.7 nM; Ki [11]: 512 nM; Ki [12]: 1120 nM; EC50 [13]: 15 nM; inhibition (INH) [14]: -15%; inhibition (INH) [15]: 12%; inhibition (INH) [16]: 44%; inhibition (INH) [17]: 55%
COC(=O)N1CCN(C(=O)Cc2ccc(Cl)c(F)c2)[C@@H]2[C@@H](N3CC[C@H](O)C3)CCC[C@@H]21.Cl | 1350 | 546 | 66.2 | 0.12 | Non-Toxic |  |  |  |  | 
